# Data published in patent US12544348B2, “Methods for treating APOE4/4-associated disorders” (The Regents of the University of California, priority 2018, dated 2026).
# Legend:
# apoE4-KI mice = experiment: Morris water maze (MWM) spatial learning and memory, aged apoE4-KI mice; type: in vivo
# Description: (§1) Mice. All protocols and procedures followed the guidelines of the Laboratory Animal Resource Center at the University of California, San Francisco (UCSF). All mice were housed under identical conditions from birth through death (12-hour light/dark cycle, housed 5/cage, PicoLab Rodent Diet 20). All mouse lines were maintained on a C57Bl/6J background. ApoE3-KI and apoE4-KI homozygous mouse lines (Taconic)^30,31 were born and aged under normal conditions at the Gladstone Institutes/UCSF animal facility. Female apoE-KI mice were used because of their susceptibility to AD-related neuronal and behavioral deficits. The ages of the mice are indicated in the behavioral testing section of the online methods. Bumetanide treatment. Bumetanide was prepared at 220 μM in 2% DMSO in 0.9% sterile saline, adjusted to pH 8.5 with NaOH for solubility, and given by i.p. injection daily starting 6 weeks before and continuing throughout behavioral assessment. Body weight was measured weekly during bumetanide treatment; injection volume was calculated to achieve a dose of 0.02 (low) or 0.2 (high) mg bumetanide/kg body mass (e.g., 50-ul daily injection for a 20-g mouse). Control mice were injected with a matched volume of 2% DMSO in 0.9% sterile saline, pH 8.5. […] Behavioral testing. Mice were singly housed before testing. Each mouse was assigned a random number, so researchers were blinded to genotype and treatment information. At about 14 months of age, apoE3-KI and apoE4-KI mice were randomly assigned to treatment groups: apoE3-KI vehicle (n=10, age 14.01±0.44 months), apoE3-KI low bumetanide (n=11, age 14.30±0.33 months), apoE3-KI high bumetanide (n=10, age 13.74±0.22 months), apoE4-KI vehicle (n=10, age 14.10±0.35), apoE4-KI low bumetanide (n=10, age 14.70±0.27 months), apoE4-KI high bumetanide (n=9, age 13.77±0.28 months). Treatment was administered daily by i.p. injection beginning 6 weeks before and continuing throughout the 14 days of testing in the Morris water maze (MWM); injections were given at the end of the light cycle and after the day's test. The MWM pool (diameter, 122 cm) contained opaque water (22-23° C.) with a platform 10 cm in diameter. The platform was submerged 1.5 cm during hidden platform sessions^20-23,32 and marked with black-and-white-striped mast (15 cm high) during cued training sessions. Mice were trained to locate the hidden platform (hidden days 1-5) and the cued platform (visible days 1-3) in two daily sessions (3.5 h apart), each consisting of two 60-s trials (hidden and cued training) with a 15-min intertrial interval. Distal visual cues on the walls of the behavioral testing room remained constant throughout the test. Visible trials took place after training and memory probes and were 60 seconds long with a cued visible platform. The platform location remained constant in the hidden platform sessions but was changed for each cued (visible) platform session. Entry points were changed semirandomly between trials. At 24, 72, and 120 hours after the last hidden platform training, a 60-s probe trial (platform removed) was done. The entry point for the probe trial was in the southwest quadrant, and the target quadrant was the northeast quadrant. Performance was monitored with an Etho Vision video-tracking system (Noldus Information Technology). For the probe trials, the following analyses were performed (1) the percent time spent in the target quadrant versus average time spent in the three other quadrants, (2) the number of crossings over the position of the target platform versus the average number of crossings over the equivalent positions in the three other quadrants and (3) the distance to platform over the first 10 seconds. Statistical analyses. Behavior metrics are expressed as mean±SEM. All values for n are the numbers of mice or biological replicates. The distribution of data was assessed with the Shapiro-Wilk normality test; most of the data were normally distributed. […]
# apoE3-KI mice = experiment: Morris water maze (MWM) spatial learning and memory, aged apoE3-KI mice; type: in vivo; settings: for short-term memory, 24-hour probe trial: vs vehicle-treated apoE3-KI
# Description: as §1
# [1] = 16-month-old apoE4-KI mice, high dose 0.2 mg/kg daily i.p. 8 weeks
# [2] = apoE4-KI mice, high dose 0.2 mg/kg daily i.p. 8 weeks
# [3] = apoE3-KI mice, high dose 0.2 mg/kg daily i.p. 8 weeks
# [4] = apoE3-KI mice, low dose 0.02 mg/kg daily i.p. 8 weeks
smiles,measurement,setting,value
"CCCCNc1cc(C(=O)O)cc(S(N)(=O)=O)c1Oc1ccccc1 [bumetanide, 3-(butylamino)-4-phenoxy-5-sulfamoylbenzoic acid]","long-term memory, 120-hour probe trial (time in target quadrant)",apoE4-KI mice; [1],significant preference for the target quadrant
same,"short-term memory, 24-hour probe trial (percent time in target quadrant)",apoE4-KI mice; [1],rescued the short-term memory deficit
same,"short-term memory, 24-hour probe trial (percent time in target quadrant)","apoE4-KI mice; 16-month-old apoE4-KI mice, low dose 0.02 mg/kg daily i.p. 8 weeks",rescued the short-term memory deficit
same,learning curve (escape latency) in hidden platform trials,"apoE4-KI mice; apoE4-KI mice, 0.02 or 0.2 mg/kg daily i.p. 8 weeks, vs vehicle, learning days 1-5",did not differ
same,"platform crossings in target quadrant versus other quadrants, 24-hour probe trial",apoE4-KI mice; [2],significantly more platform crossings in the target quadrant
same,"platform crossings in target quadrant versus other quadrants, 120-hour probe trial",apoE4-KI mice; [2],significantly more platform crossings in the target quadrant
same,"short-term memory accuracy (platform crossings), 24-hour probe trial","apoE4-KI mice; apoE4-KI mice, low dose 0.02 mg/kg daily i.p. 8 weeks",trend toward significant improvement
same,"long-term memory, 120-hour probe trial (summary paragraph, dose not stated)","apoE3-KI mice; aged apoE3-KI mice, dose not stated, vehicle-treated apoE3-KI mice did not",remembered the hidden platform location
same,learning curve (escape latency) in hidden platform trials,"apoE3-KI mice; apoE3-KI mice, 0.02 or 0.2 mg/kg daily i.p. 8 weeks, vs vehicle, learning days 1-5",did not differ
same,"long-term memory, 120-hour probe trial",apoE3-KI mice; [3],forgot the hidden platform location
same,"platform crossings in target quadrant versus other quadrants, 24-hour probe trial",apoE3-KI mice; [3],not apoE3-KI mice
same,"platform crossings in target quadrant versus other quadrants, 120-hour probe trial",apoE3-KI mice; [3],not apoE3-KI mice
same,"short-term memory, 24-hour probe trial",apoE3-KI mice; [3],impaired short-term memory
same,"long-term memory, 120-hour probe trial",apoE3-KI mice; [4],forgot the hidden platform location
same,"short-term memory, 24-hour probe trial",apoE3-KI mice; [4],performed equally well
